Reference: US10517889B2, “Modulators of SMAD7 expression” (Ionis Pharmaceuticals, Inc., priority 2017, dated 2019)
Strand notation (5' to 3'): a small letter for the sugar, then the base; units joined by * are phosphorothioate-linked, units joined directly phosphodiester-linked; [ ] holds rarer units or linkages, { } end groups; capitals alone tell only the bases. e = 2'-O-(2-methoxyethyl) (MOE); [5mC] = 5-methylcytosine; d = 2'-deoxy (DNA)

System: human SMAD7 mRNA
Assay: Antisense inhibition of human SMAD7 mRNA expression in Hep3B cells by 5-10-5 MOE gapmers, single concentration, electroporation, RT-PCR (Example 1, Study 1 and 2)
Format: cell-based
Settings: for % Inhibition: Study 2, electroporation with 15,000 nM antisense oligonucleotide; for % Inhibition of SMAD7 mRNA: electroporation with 15,000 nM antisense oligonucleotide (Study 2)
Summary of the method: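 Readout is percent SMAD7 mRNA inhibition versus untreated cells, measured by qRT-PCR (RTS5062) and corrected for total RNA by RIBOGREEN. Oligonucleotide, 5,000 nM or 15,000 nM, was delivered by electroporation into Hep3B cells at 20,000 per well. RNA was collected about 24 h later.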

[1] = 5-10-5 MOE gapmers targeting SEQ ID NO: 1 and 2
[2] = electroporation, 5,000 nM, approximately 24 hours, relative to untreated control cells, gapmers targeting SEQ ID NO: 1 and 2
[3] = electroporation, 15,000 nM antisense oligonucleotide (Study 2), 5-10-5 MOE gapmers targeting SEQ ID NO: 1 and 2
[4] = electroporation, 15,000 nM, approximately 24 hours, relative to untreated control cells, gapmers targeting SEQ ID NO: 1 and 2

Substance	% Inhibition [1]	% inhibition of SMAD7 mRNA expression [3]	also measured
771883 (antisense eA*eG*e[5mC]*eT*eG*dG*d[5mC]*dA*d[5mC]*dT*dG*dA*dA*dT*dG*e[5mC]*eT*eG*eA*eT) [compound 771883]	26%		% inhibition of SMAD7 mRNA expression [2]: 0%
771884 (antisense e[5mC]*eT*eG*e[5mC]*e[5mC]*dA*d[5mC]*d[5mC]*d[5mC]*dT*dG*dA*dG*dA*dG*eT*eG*eT*eA*eG) [compound 771884]	3%		
771886 (antisense eA*eA*e[5mC]*e[5mC]*eA*dG*dG*dT*dT*d[5mC]*d[5mC]*d[5mC]*dA*d[5mC]*dT*eG*eT*eT*eA*e[5mC]) [compound 771886]	0%		
771887 (antisense e[5mC]*eA*eG*e[5mC]*e[5mC]*dA*d[5mC]*dT*dG*d[5mC]*dT*dG*dT*d[5mC]*dT*eG*eA*eG*eG*eA) [compound 771887]	14%		
771888 (antisense eT*e[5mC]*eG*e[5mC]*e[5mC]*dA*dT*dG*dG*dA*dG*dA*dA*dT*dG*eT*eA*eA*eT*eT) [compound 771888]		0%	% Inhibition of SMAD7 mRNA [1]: 21%
771889 (antisense eT*eA*eA*eG*eA*dG*d[5mC]*dA*dT*dT*dT*dA*dT*d[5mC]*dT*e[5mC]*eG*e[5mC]*e[5mC]*eA) [compound 771889]		29%	
771890 (antisense eA*eG*eT*e[5mC]*eT*dG*dA*dA*dG*d[5mC]*d[5mC]*d[5mC]*d[5mC]*d[5mC]*dA*eA*e[5mC]*e[5mC]*eT*eG) [compound 771890]		14%	
771892 (antisense e[5mC]*eT*eG*eA*eA*dG*dT*dT*dT*d[5mC]*dT*d[5mC]*d[5mC]*dT*d[5mC]*e[5mC]*e[5mC]*eA*eT*e[5mC]) [compound 771892]	2%		
771893 (antisense eG*eT*e[5mC]*eA*eT*d[5mC]*d[5mC]*dG*dT*d[5mC]*d[5mC]*dA*d[5mC]*dT*dG*eT*e[5mC]*eT*eG*e[5mC]) [compound 771893]			% inhibition of SMAD7 mRNA expression [4]: 35%
771894 (antisense e[5mC]*eA*eA*eA*eA*dG*dG*dG*dA*dA*dA*dG*dG*dA*dG*eG*eT*eT*eT*eG) [compound 771894]	17%		
771895 (antisense eA*eT*eT*eT*eG*d[5mC]*dA*dA*d[5mC]*dA*dA*dT*dA*dA*dA*eA*e[5mC]*eA*eA*eA) [compound 771895]	0%		
771896 (antisense eG*eG*eG*e[5mC]*e[5mC]*d[5mC]*d[5mC]*d[5mC]*dT*dT*d[5mC]*dT*dG*d[5mC]*d[5mC]*eT*eT*e[5mC]*eA*eT) [compound 771896]		0%	% Inhibition of SMAD7 mRNA [1]: 17%
771897 (antisense e[5mC]*eT*e[5mC]*eT*e[5mC]*dA*dG*dG*dG*dT*d[5mC]*dT*d[5mC]*dA*dG*eT*eT*eT*eG*eA) [compound 771897]		44%	
771898 (antisense eG*eG*eT*eG*eT*dG*dA*dG*d[5mC]*dT*dG*dT*dG*dG*dA*e[5mC]*eA*e[5mC]*eA*eG) [compound 771898]		27%	
771899 (antisense e[5mC]*e[5mC]*eT*eG*eA*dT*dT*dG*dT*d[5mC]*dT*d[5mC]*d[5mC]*dA*d[5mC]*eA*eT*e[5mC]*e[5mC]*e[5mC]) [compound 771899]	47%		% inhibition of SMAD7 mRNA expression [2]: 57%
771901 (antisense eA*eA*eA*eA*eT*dG*d[5mC]*d[5mC]*d[5mC]*dA*d[5mC]*d[5mC]*dA*dG*dT*e[5mC]*eT*eT*e[5mC]*e[5mC]) [compound 771901]			% inhibition of SMAD7 mRNA expression [4]: 41%
771903 (antisense eT*eG*e[5mC]*e[5mC]*eA*dA*d[5mC]*d[5mC]*d[5mC]*d[5mC]*dA*dG*dA*dG*dG*eT*eG*eA*eG*e[5mC]) [compound 771903]	20%		
771904 (antisense e[5mC]*e[5mC]*e[5mC]*eA*eA*d[5mC]*d[5mC]*d[5mC]*dA*dT*d[5mC]*dT*d[5mC]*d[5mC]*dA*e[5mC]*e[5mC]*eA*e[5mC]*e[5mC]) [compound 771904]		0%	% Inhibition of SMAD7 mRNA [1]: 0%
771905 (antisense eT*eA*eG*eG*e[5mC]*dG*dA*dA*dT*d[5mC]*d[5mC]*d[5mC]*dT*d[5mC]*d[5mC]*e[5mC]*e[5mC]*e[5mC]*eA*eA) [compound 771905]		0%	
771906 (antisense eA*e[5mC]*e[5mC]*e[5mC]*eT*dT*dG*d[5mC]*dT*dG*dG*dT*d[5mC]*dT*d[5mC]*eT*eT*eG*eT*eT) [compound 771906]		0%	
771908 (antisense e[5mC]*eA*eA*eA*e[5mC]*dA*dT*d[5mC]*dA*d[5mC]*d[5mC]*dA*d[5mC]*dG*d[5mC]*e[5mC]*eT*e[5mC]*eG*e[5mC]) [compound 771908]	26%		
771909 (antisense e[5mC]*eA*eG*eG*e[5mC]*dT*d[5mC]*d[5mC]*d[5mC]*dT*dG*dT*dG*d[5mC]*d[5mC]*eA*eA*eT*e[5mC]*eA) [compound 771909]			% inhibition of SMAD7 mRNA expression [4]: 52%

Substance	% Inhibition [1]	% inhibition of SMAD7 mRNA expression [3]	also measured
771910 (antisense eA*eG*eG*e[5mC]*eA*d[5mC]*dG*dG*d[5mC]*d[5mC]*dG*d[5mC]*d[5mC]*dT*d[5mC]*e[5mC]*eT*eG*e[5mC]*eA) [compound 771910]	4%		
771911 (antisense eA*eT*eG*eG*eT*d[5mC]*d[5mC]*dA*dG*d[5mC]*dA*dG*dA*dG*d[5mC]*eA*eG*eA*eA*eG) [compound 771911]	20%		
771912 (antisense eA*eT*eA*eT*eT*d[5mC]*d[5mC]*dT*d[5mC]*dT*dG*d[5mC]*d[5mC]*dA*dA*eA*eG*eT*e[5mC]*e[5mC]) [compound 771912]		19%	% Inhibition of SMAD7 mRNA [1]: 44%
771913 (antisense eA*eA*eA*eA*eA*dA*dG*d[5mC]*d[5mC]*dA*dG*dT*dA*dA*dA*eG*eA*e[5mC]*eA*eT) [compound 771913]		11%	
771914 (antisense eA*eT*eT*eT*eA*dG*dG*dA*dA*d[5mC]*dA*dA*dG*dG*dG*e[5mC]*eA*eA*eG*e[5mC]) [compound 771914]		34%	
771916 (antisense e[5mC]*e[5mC]*eT*eT*e[5mC]*dT*dT*dA*dA*dA*dT*dT*dT*dT*dT*eA*eA*eT*eT*eT) [compound 771916]	0%		
771917 (antisense e[5mC]*e[5mC]*eA*eG*eA*d[5mC]*d[5mC]*d[5mC]*d[5mC]*dT*dT*d[5mC]*dT*dT*dA*eA*eA*eT*eT*eT) [compound 771917]			% inhibition of SMAD7 mRNA expression [4]: 22%
771918 (antisense eA*eA*eG*eG*e[5mC]*d[5mC]*dA*d[5mC]*dA*dT*dT*dT*dT*dA*dG*eG*eT*eT*eA*eA) [compound 771918]	12%		
771919 (antisense e[5mC]*eA*eA*eT*eG*dG*d[5mC]*dA*d[5mC]*dA*dG*dG*dG*dT*dG*eA*e[5mC]*e[5mC]*eA*eG) [compound 771919]	29%		
771920 (antisense eT*eT*eA*eT*eT*dT*dA*dA*dT*dT*dA*d[5mC]*d[5mC]*d[5mC]*dT*eG*e[5mC]*eT*e[5mC]*eA) [compound 771920]		13%	% Inhibition of SMAD7 mRNA [1]: 33%
771921 (antisense eT*e[5mC]*e[5mC]*eT*e[5mC]*d[5mC]*d[5mC]*dT*dT*dT*dA*dA*dA*dG*dG*eG*eA*eA*eG*eG) [compound 771921]		14%	
771922 (antisense eA*eA*eA*eT*eT*d[5mC]*d[5mC]*dT*dT*dT*dA*dA*dG*dG*dT*eG*eT*eT*eG*e[5mC]) [compound 771922]		29%	
771924 (antisense eT*e[5mC]*eG*e[5mC]*eT*dG*dA*dT*dA*dG*dT*dT*dA*dA*d[5mC]*e[5mC]*eT*e[5mC]*eT*eG) [compound 771924]	9%		
771925 (antisense eG*eG*e[5mC]*e[5mC]*eT*d[5mC]*dT*d[5mC]*dG*d[5mC]*dT*dG*dA*dT*dA*eG*eT*eT*eA*eA) [compound 771925]			% inhibition of SMAD7 mRNA expression [4]: 10%
771926 (antisense eA*e[5mC]*eA*eA*eA*dG*dG*dT*d[5mC]*dT*dG*dT*dG*dT*dG*eG*eA*e[5mC]*eG*e[5mC]) [compound 771926]	13%		
771927 (antisense eG*e[5mC]*e[5mC]*e[5mC]*eA*d[5mC]*dA*dG*d[5mC]*d[5mC]*d[5mC]*dA*d[5mC]*dA*d[5mC]*eG*eA*eG*eT*e[5mC]) [compound 771927]	0%		
771928 (antisense e[5mC]*e[5mC]*e[5mC]*e[5mC]*eA*dT*dT*dG*d[5mC]*d[5mC]*dA*d[5mC]*dT*dA*d[5mC]*eA*eG*eA*eG*eA) [compound 771928]		0%	% Inhibition of SMAD7 mRNA [1]: 27%
771929 (antisense e[5mC]*eT*eT*eT*e[5mC]*d[5mC]*dA*dG*d[5mC]*dA*dA*dA*dA*d[5mC]*d[5mC]*eA*eT*eT*e[5mC]*eG) [compound 771929]		0%	
771930 (antisense e[5mC]*e[5mC]*eA*eG*e[5mC]*d[5mC]*d[5mC]*dA*dG*dA*dA*dA*dA*dA*d[5mC]*eT*eG*e[5mC]*eA*eA) [compound 771930]		26%	
771932 (antisense e[5mC]*eG*eA*eG*eG*dT*dG*d[5mC]*d[5mC]*d[5mC]*d[5mC]*d[5mC]*dA*dT*dG*e[5mC]*e[5mC]*eA*eG*eG) [compound 771932]	13%		
771933 (antisense eA*eT*e[5mC]*eG*eA*dG*dG*dT*dG*d[5mC]*d[5mC]*d[5mC]*d[5mC]*d[5mC]*dA*eT*eG*e[5mC]*e[5mC]*eA) [compound 771933]			% inhibition of SMAD7 mRNA expression [4]: 31%
